Data taken from publication PMC12063423, “Identification of the methionine transporter MetQ in Streptococcus suis and its contribution to virulence and biofilm formation” (Veterinary Research, 2025).

Biological target: T1, MetQ (SSU1577) (Streptococcus suis, UniProt A0A0H3N1C6)
T1 construct: gene SSUBM407_1651; mature protein aa 31-283 without signal peptide (1-29) and lipobox Cys30; codon-optimised, pET16b, E. coli BL21(DE3); full-length precursor 283 aa
Test: isothermal titration calorimetry, one-site model
Format: binding
Conditions: PBS pH 7.3, 25 °C; 38.8 µM protein in cell, 200 µM ligand in syringe

T1 sequence (A0A0H3N1C6 entry or part of it): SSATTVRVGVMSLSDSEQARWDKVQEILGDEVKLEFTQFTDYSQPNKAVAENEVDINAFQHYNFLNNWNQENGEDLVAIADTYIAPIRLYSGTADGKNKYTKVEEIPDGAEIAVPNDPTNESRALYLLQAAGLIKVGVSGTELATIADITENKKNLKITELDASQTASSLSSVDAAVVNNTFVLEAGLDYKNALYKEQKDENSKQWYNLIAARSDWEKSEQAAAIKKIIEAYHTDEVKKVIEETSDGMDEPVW

CSCC[C@H](N)C(=O)O [L-methionine]
Kd: 7.1 µM
